Values of other authors, collected in patent US20240011040A1, “SALICYLIC ACID-INDUCIBLE GENE EXPRESSION COMPOSITIONS AND SYSTEMS FOR CELLS” (UNIVERSITY OF HOUSTON SYSTEM, priority 2020, published 2024).
pKd: −log10 of the molar value.

Columns and labels:
[1] = target: T1, Arabidopsis thaliana (At) NPR4 (Arabidopsis thaliana, UniProt Q5ICL9); settings: AtNPR4, high-affinity sensor of SA
T1 sequence (Q5ICL9 1-574): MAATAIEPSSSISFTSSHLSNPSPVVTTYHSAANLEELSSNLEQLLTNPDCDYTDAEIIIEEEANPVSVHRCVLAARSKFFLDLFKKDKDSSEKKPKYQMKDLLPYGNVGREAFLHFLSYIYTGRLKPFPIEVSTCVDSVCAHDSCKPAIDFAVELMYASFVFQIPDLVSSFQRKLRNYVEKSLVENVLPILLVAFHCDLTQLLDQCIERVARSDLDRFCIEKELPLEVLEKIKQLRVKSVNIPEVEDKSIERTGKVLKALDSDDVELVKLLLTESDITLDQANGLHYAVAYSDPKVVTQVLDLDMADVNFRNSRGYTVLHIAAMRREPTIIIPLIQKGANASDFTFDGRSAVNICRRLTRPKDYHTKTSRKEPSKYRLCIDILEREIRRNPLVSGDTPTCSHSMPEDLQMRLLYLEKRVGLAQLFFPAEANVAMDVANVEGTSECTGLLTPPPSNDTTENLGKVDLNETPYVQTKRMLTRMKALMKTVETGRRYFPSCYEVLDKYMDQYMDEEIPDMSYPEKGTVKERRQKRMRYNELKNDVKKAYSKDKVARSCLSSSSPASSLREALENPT

Molecule	pKd [1]	half-life in blood
O=C(O)c1ccccc1O [SA, salicylic acid]	7.62	
EPO: glycoprotein cytokine secreted mainly by the kidney; stimulates red blood cell production		around 5 h
